Laboratory results taken from ChEMBL document CHEMBL1123926, “Synthesis and neuroleptic activity of a series of 1-[1-(benzo-1,4-dioxan-2-ylmethyl)-4-piperidinyl]benzim idazolone derivatives” (J Med Chem, 1987).

Key:
[1] = target: Dopamine receptor (Mus musculus) (UniProt P51436+Q8BLD9+Q61616+P61168+P30728); test: Neuroleptic activity determined by its inhibitory effect on apomorphine-induced climbing behavior in mice by intraperitoneal administration; format: functional, organism-based
[2] = Therapeutic ratio of ED50 of catalepsy to ED50 of climbing in […]; format: ADME
[3] = species on record: Rattus norvegicus; test: Cataleptogenic activity was evaluated for the compound as the 50% effective dose required to induce cataleptic effect in rats; format: functional
[4] = target: T1, D(2) dopamine receptor (Bos taurus, UniProt P20288); test: Binding affinity towards dopamine receptor D2 was determined by displacement of [3H]spiroperidol from bovine nucleus caudate membranes.
T1 sequence (P20288 whole entry): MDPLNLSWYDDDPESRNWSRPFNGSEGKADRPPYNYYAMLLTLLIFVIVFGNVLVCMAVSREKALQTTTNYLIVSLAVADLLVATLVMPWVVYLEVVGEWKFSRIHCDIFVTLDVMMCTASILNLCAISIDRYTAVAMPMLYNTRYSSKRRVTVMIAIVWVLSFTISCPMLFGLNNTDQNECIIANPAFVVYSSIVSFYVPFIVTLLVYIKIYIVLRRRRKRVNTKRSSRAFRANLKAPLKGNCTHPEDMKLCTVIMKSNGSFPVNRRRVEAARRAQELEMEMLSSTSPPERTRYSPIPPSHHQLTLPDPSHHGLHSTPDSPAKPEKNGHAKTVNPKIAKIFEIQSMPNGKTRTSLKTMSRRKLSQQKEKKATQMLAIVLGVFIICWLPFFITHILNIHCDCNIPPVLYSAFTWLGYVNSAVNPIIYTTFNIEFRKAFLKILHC

[5] = test system: Mus musculus; test: Neuroleptic activity determined by its inhibitory effect on apomorphine-induced climbing behavior in mice by peroral administration; format: functional; details: po
[6] = target: T1, D(2) dopamine receptor; test: Displacement of [3H]spiroperidol from bovine caudate nucleus membrane Dopamine receptor D2
[7] = Therapeutic ratio of ED50 of catalepsy in rats to ED50 of climbing in mouse; format: ADME, organism-based; details: rat and mouse, in vivo
[8] = test system: Mus musculus; test: Neuroleptic activity determined by its inhibitory effect on apomorphine-induced climbing behavior in mice by intraperitoneal administration. Range is 0.040-0.075; format: functional; details: ip
[9] = test system: Mus musculus; test: Neuroleptic activity determined by its inhibitory effect on apomorphine-induced climbing behavior in mice by intraperitoneal administration. Range is 0.007-0.250; format: functional; details: ip
[10] = test system: Mus musculus; test: Neuroleptic activity determined by its inhibitory effect on apomorphine-induced climbing behavior in mice by intraperitoneal administration. Range is 0.03-0.064; format: functional; details: ip
[11] = test system: Mus musculus; test: Neuroleptic activity determined by its inhibitory effect on apomorphine-induced climbing behavior in mice by intraperitoneal administration. Range is between 0.009-0.037; format: functional; details: ip
[12] = test system: Mus musculus; test: Neuroleptic activity determined by its inhibitory effect on apomorphine-induced climbing behavior in mice by intraperitoneal administration. Range is 0.019-0.092; format: functional; details: ip
[13] = test system: Mus musculus; test: Neuroleptic activity determined by its inhibitory effect on apomorphine-induced climbing behavior in mice by intraperitoneal administration. Range is 0.071-0.206; format: functional; details: ip
[14] = test system: Mus musculus; test: Neuroleptic activity determined by its inhibitory effect on apomorphine-induced climbing behavior in mice by intraperitoneal administration. Range is 0.009-0.109; format: functional; details: ip
[15] = species on record: Mus musculus; test: animal or person; details: ip
Description: Neuroleptic activity determined by its inhibitory effect on apomorphine-induced climbing behavior in mice by intraperitoneal administration in experiment 2 Range is 0.05-0.17

[16] = test system: Mus musculus; test: Neuroleptic activity determined by its inhibitory effect on apomorphine-induced climbing behavior in mice by intraperitoneal administration. Range is between 0.0033-0.278; format: functional; details: ip
[17] = test system: Mus musculus; test: Neuroleptic activity determined by its inhibitory effect on apomorphine-induced climbing behavior in mice by intraperitoneal administration. Range is 0.037-0.256; format: functional; details: ip
[18] = test system: Mus musculus; test: Neuroleptic activity determined by its inhibitory effect on apomorphine-induced climbing behavior in mice by intraperitoneal administration. Range is 0.007-0.029; format: functional; details: ip
[19] = test system: Mus musculus; test: Neuroleptic activity determined by its inhibitory effect on apomorphine-induced climbing behavior in mice by intraperitoneal administration. Range is between 0.035-0.192; format: functional; details: ip
[20] = test system: Mus musculus; test: Neuroleptic activity determined by its inhibitory effect on apomorphine-induced climbing behavior in mice by intraperitoneal administration. Range is 0.008-0.766; format: functional; details: ip
[21] = test system: Mus musculus; test: Neuroleptic activity determined by its inhibitory effect on apomorphine-induced climbing behavior in mice by peroral administration in experiment 1.Range is 0.02-0.42; format: functional; details: po
[22] = test system: Mus musculus; test: Neuroleptic activity determined by its inhibitory effect on apomorphine-induced climbing behavior in mice by intraperitoneal administration in experiment 2. Range is 0.11-0.41; format: functional; details: ip

Cc1ccc2c(c1)nc(O)n2C1CCN(CC2COc3cc(F)ccc3O2)CC1 (configuration not stated)
ED50 [1]: 0.5 mg/kg

Cc1ccc2c(c1)nc(O)n2C1CCN(CC2COc3ccc(Cl)cc3O2)CC1 (configuration not stated)
selectivity ratio [2]: 11
ED50 [3]: 1 mg/kg
Ki [4]: 30 nM
ED50 [1]: 0.093 mg/kg

Oc1nc2ccc(Cl)cc2n1C1CCN(CC2COc3ccc(F)cc3O2)CC1 (configuration not stated)
ED50 [1]: 0.16 mg/kg

CCc1ccc2c(c1)nc(O)n2C1CCN(CC2COc3ccccc3O2)CC1 (configuration not stated)
ED50 [1]: 0.17 mg/kg

Oc1nc2cc(Cl)ccc2n1C1CCN(CC2COc3ccc(F)cc3O2)CC1 (configuration not stated)
ED50 [5]: 0.14 mg/kg

Oc1nc2cc(F)ccc2n1C1CCN(CC2COc3cc(Cl)c(Cl)cc3O2)CC1 (configuration not stated)
ED50 [1]: 5.5 mg/kg

Cc1cc2c(cc1C)OC(CN1CCC(n3c(O)nc4cc(F)ccc43)CC1)CO2 (configuration not stated)
Ki [6]: 25 nM
ED50 [3]: > 20 mg/kg
selectivity ratio [7]: > 363
ED50 [8]: 0.055 mg/kg

Oc1nc2cc(C(F)(F)F)ccc2n1C1CCN(CC2COc3ccc(F)cc3O2)CC1 (configuration not stated)
ED50 [1]: > 10 mg/kg

Cc1ccc2c(c1)nc(O)n2C1CCN(CC2COc3ccccc3O2)CC1 (configuration not stated)
Ki [6]: 120 nM
ED50 [3]: 40 mg/kg
ED50 [9]: 0.013 mg/kg
selectivity ratio [7]: 3080

Oc1nc2cc(C(F)(F)F)ccc2n1C1CCN(CC2COc3ccccc3O2)CC1 (configuration not stated)
ED50 [1]: > 10 mg/kg

Cc1cccc2c1OCC(CN1CCC(n3c(O)nc4cc(Cl)ccc43)CC1)O2 (configuration not stated)
ED50 [1]: 1.3 mg/kg

Oc1nc2cccc(Cl)c2n1C1CCN(CC2COc3ccccc3O2)CC1 (configuration not stated)
ED50 [1]: > 20 mg/kg

Oc1nc2cc(F)ccc2n1C1CCN(CC2COc3ccc(Cl)cc3O2)CC1 (configuration not stated)
ED50 [10]: 0.044 mg/kg

Oc1nc2cc(F)ccc2n1C1CCN(CC2COc3ccccc3O2)CC1 (configuration not stated)
ED50 [11]: 0.019 mg/kg

Cc1cccc2c1OCC(CN1CCC(n3c(O)nc4cc(F)ccc43)CC1)O2 (configuration not stated)
Ki [6]: 8 nM
ED50 [3]: 8 mg/kg
ED50 [12]: 0.043 mg/kg
selectivity ratio [7]: 186

Cc1c(Cl)ccc2nc(O)n(C3CCN(CC4COc5ccccc5O4)CC3)c12 (configuration not stated)
ED50 [1]: 10 mg/kg

Oc1nc2cc(Cl)ccc2n1C1CCN(CC2COc3cc(Cl)c(Cl)cc3O2)CC1 (configuration not stated)
ED50 [1]: 6 mg/kg

Oc1nc2cc(Cl)c(Cl)cc2n1C1CCN(CC2COc3ccccc3O2)CC1 (configuration not stated)
ED50 [1]: 0.45 mg/kg

Oc1nc2cccnc2n1C1CCN(CC2COc3ccccc3O2)CC1 (configuration not stated)
ED50 [1]: > 10 mg/kg

Cc1ccc2c(c1)OCC(CN1CCC(n3c(O)nc4cc(Cl)ccc43)CC1)O2 (configuration not stated)
Ki [6]: 60 nM
ED50 [3]: 20 mg/kg
ED50 [13]: 0.121 mg/kg
selectivity ratio [7]: 165

Cc1c(Cl)ccc2nc(O)n(C3CCN(CC4COc5ccc(F)cc5O4)CC3)c12 (configuration not stated)
ED50 [1]: > 25 mg/kg

Oc1nc2cc(Cl)c(Cl)cc2n1C1CCN(CC2COc3ccc(F)cc3O2)CC1 (configuration not stated)
ED50 [1]: 1.4 mg/kg

Oc1nc2cccnc2n1C1CCN(CC2COc3ccc(F)cc3O2)CC1 (configuration not stated)
ED50 [1]: > 25 mg/kg

Oc1nc2cc(-c3ccccc3)ccc2n1C1CCN(CC2COc3ccccc3O2)CC1 (configuration not stated)
ED50 [1]: > 25 mg/kg

Oc1nc2cccc(Cl)c2n1C1CCN(CC2COc3ccc(F)cc3O2)CC1 (configuration not stated)
ED50 [1]: > 25 mg/kg

Nc1ccc2c(c1)nc(O)n2C1CCN(CC2COc3ccccc3O2)CC1 (configuration not stated)
ED50 [1]: 3.9 mg/kg

Oc1nc2cc(Cl)ccc2n1C1CCN(CC2COc3ccc(Cl)cc3O2)CC1 (configuration not stated)
ED50 [1]: 0.75 mg/kg

O=c1[nH]c2cc(F)ccc2n1C1CCN(CC2COc3cc(F)ccc3O2)CC1 (configuration not stated)
Ki [6]: 70 nM
selectivity ratio [7]: < 8

Cc1ccc2c(c1)OCC(CN1CCC(n3c(O)nc4cc(C)ccc43)CC1)O2 (configuration not stated)
Ki [6]: 40 nM
ED50 [3]: 6 mg/kg
ED50 [14]: 0.032 mg/kg
selectivity ratio [7]: 188

O=C(CCCN1CCC(O)(c2ccc(Cl)cc2)CC1)c1ccc(F)cc1 [HALOPERIDOL]
ED50 [3]: 0.5 mg/kg
ED50 [15]: 0.09 mg/kg

COc1ccc2c(c1)nc(O)n2C1CCN(CC2COc3ccccc3O2)CC1 (configuration not stated)
Ki [6]: 150 nM
ED50 [3]: 1 mg/kg
selectivity ratio [7]: 104
ED50 [16]: 0.0096 mg/kg

Oc1nc2ccccc2n1C1CCN(CC2COc3ccccc3O2)CC1 (configuration not stated)
ED50 [1]: 0.7 mg/kg

Oc1nc2cc(F)ccc2n1C1CCN(CC2COc3ccc(F)cc3O2)CC1 (configuration not stated)
ED50 [3]: 20 mg/kg
ED50 [17]: 0.098 mg/kg
selectivity ratio [7]: 204

Cc1cc2c(cc1C)OC(CN1CCC(n3c(O)nc4cc(Cl)ccc43)CC1)CO2 (configuration not stated)
ED50 [1]: 0.8 mg/kg

Cc1ccc2c(c1)nc(O)n2C1CCN(CC2COc3ccc(F)cc3O2)CC1 (configuration not stated)
ED50 [18]: 0.014 mg/kg
Ki [6]: 150 nM
ED50 [3]: 2.5 mg/kg
selectivity ratio [7]: 187

Oc1nc2cc(Br)ccc2n1C1CCN(CC2COc3ccccc3O2)CC1 (configuration not stated)
Ki [6]: 70 nM
ED50 [3]: 20 mg/kg
ED50 [19]: 0.082 mg/kg
selectivity ratio [7]: 244

Cc1ccc2c(c1)nc(O)n2C1CCN(CC2COc3cc(C)c(C)cc3O2)CC1 (configuration not stated)
Ki [6]: 45 nM
ED50 [3]: 10 mg/kg
ED50 [20]: 0.079 mg/kg
selectivity ratio [7]: 126

Oc1nc2ccc(Cl)cc2n1C1CCN(CC2COc3ccccc3O2)CC1 (configuration not stated)
ED50 [1]: 0.11 mg/kg

O=c1[nH]c2cc(Cl)ccc2n1C1CCN(CC2COc3ccccc3O2)CC1 (configuration not stated) [AXAMOZIDE]
Ki [6]: 30 nM
ED50 [3]: > 40 mg/kg
ED50 [21]: 0.09 mg/kg
ED50 [22]: 0.21 mg/kg
selectivity ratio [7]: > 444

Oc1nc2cc(F)ccc2n1C1CCN(CC2COc3cc(F)ccc3O2)CC1 (configuration not stated)
ED50 [3]: < 5 mg/kg
ED50 [1]: 0.63 mg/kg

Cc1ccc2c(c1)nc(O)n2C1CCN(CC2COc3cc(Cl)c(Cl)cc3O2)CC1 (configuration not stated)
ED50 [1]: 3.6 mg/kg

CC(C)(C)c1ccc2c(c1)nc(O)n2C1CCN(CC2COc3ccccc3O2)CC1 (configuration not stated)
ED50 [1]: > 25 mg/kg

Oc1nc2cc(Cl)ccc2n1C1CCN(CC2COc3cc(F)ccc3O2)CC1 (configuration not stated)
ED50 [1]: 0.2 mg/kg
